Like-named read-outs stand apart in the source and are kept apart here.
Tests used:
Assay type in all cases: in vivo, male Sprague Dawley rats
[1] = tested on: blood glucose level in fasted and glucose-loaded rats; assay: Duration of the action of the compound 4 (fasted, glucose-loaded rats); conditions: for Blood glucose before administration: 50 mg/kg oral group, before administration (baseline); for Blood glucose before administration / Blood glucose 2 hours / Blood glucose 4 hours / Blood glucose 6 hours: ± SE
Procedure: (§1) These new compounds of the present invention are very useful as anti-diabetic agents, which is supported from the following pharmacological studies. The animals used for the pharmacological studies were male Sprague Dawley rats exept otherwise noted. 1. Hypoglycemic activity in non-diabetic rats (screening test)
(§2) The rats were fasted for 16 - 18 hours prior to the experiment and those weighing 140 - 160g were used. Glucose solution (100 mg/0.5ml/150g body weight) was subcutaneously injected on the fasted rats. Each of the present compounds was suspended in 1% carboxymethyl cellulose (CMC), and about 0.5 ml of the suspension (corresponding to 100 mg/kg of the compound per body weight) was orally administered. Blood samples were taken from the tail vein of the rats at 2 and 5 hours after the administration, and the blood glucose level in each sample (0.1 ml) was determined by the micro method of Momose as described in SOGO-RINSHO 11, 120 (1962).
In order to reconfirm the effectiveness of the compounds of the present invention, more detailed examinations were performed on the most representative compound (compound of the Example 4 abbreviated hereinafter as the compound 4). The compound 4 suspended in 1% CMC was orally administered in a dose of 50 mg/kg to the fasted and glucose-loaded rats according to the preceding screening test, and the blood glucose levels at 2, 4 and 6 hours after the administration were determined by the method of Momose.

[2] = tested on: blood glucose level in alloxan diabetic rats; assay: Blood glucose level in alloxan diabetic rats loaded with much quantity of glucose
Procedure: as §1
Respective dose of the compound 4 (12.5 and 100 mg/kg) together with 2g/kg of glucose was orally administered to the alloxan diabetic rats.

[3] = tested on: serum FFA level in fasted rats; assay: Time course of the serum FFA level in fasted rats (FIG. 1); conditions: 50 mg/kg oral; 0.5, 1, 2, 4 and 6 hours
Procedure: as §1
Further experiment was performed to clarify the effectiveness of the compound 4 on the serum FFA. Blood samples were taken at 0.5, 1, 2, 4 and 6 hours after an oral administration of 50 mg/kg to the fasted rats and the serum FFA levels were determined.

[4] = tested on: blood glucose level in non-diabetic rats; assay: Hypoglycemic activity in non-diabetic rats (screening test); conditions: Rattus norvegicus, 100 mg/kg oral, fasted, glucose s.c.
Procedure: as §1, §2
3,5-Dinitrophthalic acid is reduced with glucose to stable orange-red azo-compound via red hydroxyaminophthalic acid in basic media.
To 0.5ml of water was added 0.1ml of blood and shaken to hemolyze, and to which was added 1.7ml of 0.06N barium hydroxide solution. To the resulting dark-brown solution was added 1.7ml of zinc sulfate solution (1g/dl), and which was shaken thoroughly and allowed to stand for 2-3min followed by centrifugation.
One ml of 3,5-dinitrophthalic acid solution (1.5g of monopyridinium-3,5-dinitrophthalate in 500ml of water) and 1 ml of sodium carbonatesodium hyposulfite solution (125-25g/500ml) were added to 2ml of spernatant solution. The solution was heated at 100° C for 10 min. After cooling with running water for 3 min, water was added to make 20ml.
To 2ml of water were added 3,5-dinitrophthalic acid solution and an alkaline solution, and the solution was treated as mentioned above.
As the absorbance of reference at 450nm was adjusted to 0, the absorbance of sample corresponded to blood glucose level.

[5] = tested on: serum FFA level in alloxan diabetic rats; assay: Serum FFA level in alloxan diabetic rats, oral administration; conditions: compound 4 at 12.5 and 100 mg/kg, 1.5 and 5 hours
Procedure: as §1
Alloxan diabetic rats were obtained as follows. Namely, 2.5% fresh solution of alloxan (50mg/kg) was injected into the tail vein of male rats, and the rats were daily injected with insulin (1-4 units/day) from the 7th day after the administration of alloxan. The alloxan diabetic rats which were survived for more than 2 months with daily injection of insulin were used. The alloxan diabetic rats were fasted for 24 hours after the last treatment with insulin, and then the compound of the present invention was orally administered. The blood glucose levels were determined by the micro method of Momose before and 2, 4 and 6 hours after the administration.
The alloxan diabetic rats which were prepared and then preserved for 6 months with insulin as described in the previous experiment were used.

[6] = tested on: blood glucose level in streptozotocin-diabetic rats; assay: Hypoglycemic effect in streptozotocin-diabetic rats; conditions: for Blood glucose level Before: before (baseline); for Hypoglycemic effect in streptozotocin-diabetic rats (in words): oral
Procedure: The animals used for the pharmacological studies were male Sprague Dawley rats exept otherwise noted. 1. […]
The rats were fasted for 16 hours, and then streptozotocin was intravenously injected in a dose of 65 mg/kg. Oral administration of the compound 4 was performed at 48 hours after the injection of streptozotocin. Blood samples were taken at 4 hours after the oral administration, and the blood glucose level in each sample was determined.

[7] = tested on: blood glucose level in non-diabetic rats; assay: Blood glucose level in non-diabetic rats, oral administration for 10 days
Procedure: as §1
The compound suspended in 1% CMC was orally administered once a day for 10 days to healthy rats weighing 140-160g. The rats were fasted for 16-18 hours prior to the last administration. Blood samples were taken at 90 minutes after the last administration, and the blood glucose and serum FFA levels were determined, respectively.

[8] = tested on: serum FFA level in non-diabetic rats; assay: Serum free fatty acids (FFA) level in non-diabetic rats at 90 minutes; conditions: 100 mg/kg oral
Procedure: as §1
The rats were fasted for 16-18 hours, and those weighing 130-160g were used. The compound 4 suspended in 1% CMC was orally administered to the fasted rats, and at 90 minutes after administration blood was drawn from the […] vena cava under anesthesia with sodium pentobarbital. The blood glucose level was determined by the method of Momose, and the serum FFA level was determined by the method of Itaya and Ui as described in J. Lipid Res., 6, 16 (1965), respectively.

[9] = tested on: blood glucose level in fasted and glucose-loaded rats; assay: Relationships between doses and reducing activity of the compound 4; conditions: for Blood glucose: ± SE
Procedure: The animals used for the pharmacological studies were male Sprague Dawley rats exept otherwise noted. 1. Hypoglycemic activity in non-diabetic rats (screening test)
as §2
The compound 4 and tolbutamide were orally administered to the fasted and glucose-loaded rats in various doses.

[10] = 2 hours, read-out: Reduction % of blood glucose from control after 2 hours
[11] = 5 hours, read-out: Reduction % of blood glucose from control after 5 hours
[12] = Rattus norvegicus, 100 mg/kg oral, 4 hours

Cc1cc(C)n(C(=O)CNS(=O)(=O)c2ccc(Cl)cc2)n1 [Example 4, 1-(N-p-chlorobenzenesulfonyl-glycyl)-3,5-dimethylpyrazole]
Blood glucose before administration [1]: 85.6 ± 3.2 mg% | Durability of hypoglycemic effect ([1]; 50 mg/kg oral, 2, 4 and 6 hours): more durable than that of tolbutamide | Blood glucose 2 hours ([1]; 50 mg/kg oral): 50.9 ± 1.2 mg% | Blood glucose 4 hours ([1]; 50 mg/kg oral): 63.1 ± 3.0 mg% | Blood glucose 6 hours ([1]; 50 mg/kg oral): 74.0 ± 1.6 mg% | Effect on blood glucose level (in words) ([2]; 12.5 and 100 mg/kg oral with 2g/kg of glucose, 3 hours): significantly lowered at 3 hours after the administration (p<0.005) | Effect on serum FFA level (in words, FIG. 1) [3]: markedly lowered the FFA level, and this effect could be observed at 6 hours after | inhibition in vivo at 100 mg/kg [4, 10]: 41.9% | inhibition in vivo at 100 mg/kg [4, 11]: 25.2% | Effect on serum FFA level in alloxan diabetic rats (in words) [5]: drastically decreased within 1.5 hours, and it was still more lowered even at 5 hours later | Blood glucose level Before ([6]; 6.25 mg/kg oral group): 425.3 ± 10.5 mg % | Blood glucose level 4 hours ([6]; 6.25 mg/kg oral, 4 hours): 263.2 ± 26.6 mg % | Blood glucose level Before ([6]; 25 mg/kg oral group): 415.8 ± 12.2 mg % | Blood glucose level 4 hours ([6]; 25 mg/kg oral, 4 hours): 251.2 ± 21.8 mg % | Blood glucose level Before ([6]; 100 mg/kg oral group): 411.5 ± 16.9 mg % | Blood glucose level 4 hours ([6]; 100 mg/kg oral, 4 hours): 231.4 ± 33.3 mg % | inhibition at 6.25 mg/kg ([6]; Rattus norvegicus, 6.25 mg/kg oral, 4 hours): 61.9 ± 6.2% | inhibition at 25 mg/kg ([6]; Rattus norvegicus, 25 mg/kg oral, 4 hours): 59.8 ± 3.8% | inhibition at 100 mg/kg [6, 12]: 54.3 ± 6.4% | Hypoglycemic effect in streptozotocin-diabetic rats (in words) ([6]; 4 hours): markedly reduced the blood glucose level | Blood glucose levels ([7]; 0.8 mg/kg oral once a day): 81.6 ± 4.8 mg/dL | Blood glucose levels ([7]; 3.1 mg/kg oral once a day): 74.4 ± 6.6 mg/dL | Blood glucose levels ([7]; 12.5 mg/kg oral once a day): 74.8 ± 3.9 mg/dL | Blood glucose levels ([7]; 50.0 mg/kg oral once a day): 69.9 ± 6.7 mg/dL | Effect on serum FFA level (in words) [8]: more effective than tolbutamide in lowering the serum FFA level | Serum FFA level [8]: 17.4 ± 5.8 μ Eq/dl | Reduction % from control ([9]; 0.56 mg/kg oral): 14.9% | Blood glucose ([9]; 0.56 mg/kg oral): 77.5 ± 6.6 mg% | Reduction % from control ([9]; 1.14 mg/kg oral): 19.4% | Reduction of the blood glucose level (in words) ([9]; 1.14 mg/kg oral): significantly reduced the blood glucose level even at the dose of 1.14 mg/kg | Blood glucose ([9]; 1.14 mg/kg oral): 73.4 ± 6.4 mg% | Reduction % from control ([9]; 3.38 mg/kg oral): 20.6% | Blood glucose ([9]; 3.38 mg/kg oral): 72.3 ± 4.1 mg% | Reduction % from control ([9]; 6.75 mg/kg oral): 24.0% | Blood glucose ([9]; 6.75 mg/kg oral): 69.2 ± 7.8 mg% | Reduction % from control ([9]; 12.5 mg/kg oral): 34.8% | Blood glucose ([9]; 12.5 mg/kg oral): 59.4 ± 4.0 mg% | Reduction % from control ([9]; 25 mg/kg oral): 45.4% | Blood glucose ([9]; 25 mg/kg oral): 49.7 ± 2.8 mg% | Reduction % from control ([9]; 50 mg/kg oral): 40.5% | Blood glucose ([9]; 50 mg/kg oral): 54.2 ± 2.9 mg%

CCCCNC(=O)NS(=O)(=O)c1ccc(C)cc1 [Tolbutamide, reference compound]
Blood glucose before administration [1]: 86.2 ± 2.1 mg% | Blood glucose 2 hours ([1]; 50 mg/kg oral): 44.7 ± 5.0 mg% | Blood glucose 4 hours ([1]; 50 mg/kg oral): 60.4 ± 5.4 mg% | Blood glucose 6 hours ([1]; 50 mg/kg oral): 80.7 ± 5.4 mg% | Hypoglycemic effect (in words) ([2]; alloxan diabetic rats, dose not stated): no hypoglycemic effect | Effect on serum FFA level (in words, FIG. 1) [3]: only a slight suppression | inhibition in vivo at 100 mg/kg [4, 10]: 54.1% | inhibition in vivo at 100 mg/kg [4, 11]: 52.4% | Effect on serum FFA level in alloxan diabetic rats (in words) [5]: no suppressive effect on the serum FFA level | Blood glucose level Before ([6]; 100 mg/kg oral group): 413.9 ± 10.2 mg % | Blood glucose level 4 hours ([6]; 100 mg/kg oral, 4 hours): 327.8 ± 11.3 mg % | inhibition at 100 mg/kg [6, 12]: 79.4 ± 2.7% | Hypoglycemic effect in streptozotocin-diabetic rats (in words) ([6]; 4 hours): did not have a potent hypoglycemic activity | Blood glucose levels ([7]; 50.0 mg/kg oral once a day): 33.6 ± 6.3 mg/dL | Serum FFA level [8]: 30.8 ± 15.6 μ Eq/dl | Reduction % from control ([9]; 6.75 mg/kg oral): 3.8% | Blood glucose ([9]; 6.75 mg/kg oral): 87.6 ± 6.5 mg% | Reduction % from control ([9]; 12.5 mg/kg oral): -1.4% | Blood glucose ([9]; 12.5 mg/kg oral): 92.4 ± 3.5 mg% | Reduction % from control ([9]; 25 mg/kg oral): 19.3% | Blood glucose ([9]; 25 mg/kg oral): 73.5 ± 5.0 mg% | Reduction % from control ([9]; 50 mg/kg oral): 48.0% | Blood glucose ([9]; 50 mg/kg oral): 47.4 ± 3.4 mg% | Potency at low doses (in words) ([9]; low doses, oral): not potent at low doses

Reference: patent US4007201A, “Novel pyrazole derivatives” (Kyorin Pharmaceutical Co. Ltd., priority 1975, dated 1977)
